Assay results: patent publication US5439816A, “Carboxymethylcellulase isolated from bacillus sp. PKM-5430 (FERM BP-4087)” (Kao Corporation, priority 1991, dated 1995)

How the values were obtained:
[1] = test system: Carboxymethylcellulase 5430; test: Substrate specificity of Carboxymethylcellulase 5430 (hydrolytic activities, DNS method / p-nitrophenol release); type: biochemical, Bacillus sp. PKM-5430
Procedure: (§1) Activities were determined by the DNS method (J. R. Summer and G. F. Somers, Laboratory Experiments in Biological Chemistry, Academic Press, New York, U.S.A., 1944). Namely, 0.1 ml of a suitably diluted enzyme solution was added to 0.9 ml of a 1.1% (w/v) solution of a CMC (A01MC) substrate in 0.1M glycine-NaOH buffer (pH: 9.0). After a 20-minute reaction at 40° C., 1 ml of 0.05% (w/v) 3,5-dinitrosalicylic acid solution (product of Wako Pure Chemical Industries, Ltd.) was added, and the resulting mixture was immediately placed in a boiling water bath for 5 minutes, followed by cooling in an iced water bath. Then, 4 ml of deionized water was added further, afterwhich, colorimetry was conducted by measuring an absorbance at 535 nm. With respect to enzymatic activity, the amount of enzyme, which liberates reducing sugars corresponding to 1 μmole of glucose for 1 minute, was defined as 1 unit.
(§2) Sodium hydroxide- and phosphoric acid-swollen celluloses were prepared according to the method of Tomita et al. [Y. Tomita, H. Suzuki and K. Nisizawa, J. Biochem., 78, 499(1975)]. The reducing sugar liberated was determined in a similar manner to that of the method (a) except that substrate solutions containing cellulose substrates were used, and the reaction was conducted at 30° C.
(§3) The reducing sugar liberated was determined in a similar manner to that of the method (a) except that substrate solutions containing polysaccharides were used, and the reaction was conducted at 30° C.
(§4) A suitably diluted enzyme solution was added to a solution of 8 mM of a PNPG or PNPC substrate in 0.1M phosphate buffer of pH 7.0 to react them for 20 minutes at 30° C. The p-nitrophenol liberated was determined at 400 nm and the amount formed was calculated.
(§5) The enzyme is also active toward cellobiose, PNPG, PNPC, cellulose powder and phosphoric acid-swollen cellulose.

[2] = test system: Carboxymethylcellulase 5812; test: Substrate specificity of Carboxymethylcellulase 5812 (hydrolytic activities, DNS method / p-nitrophenol release); type: biochemical, Bacillus sp. PKM-5812
Procedure: as §1, §2, §3, §4, §5

[3] = substrate 8 mM, 0.1M phosphate buffer pH 7.0, 30° C., activity toward CMC taken as 100%

SMILES: O=[N+]([O-])c1ccc(O[C@@H]2O[C@H](CO)[C@@H](O[C@@H]3O[C@H](CO)[C@@H](O)[C@H](O)[C@H]3O)[C@H](O)[C@H]2O)cc1 [PNPC, p-nitrophenyl-β-D-cellobioside]
- activity of the enzyme toward substrate [1]: active
- Relative activity (%) [1, 3]: 1.0%
- activity of the enzyme toward substrate [2]: active
- Relative activity (%) [2, 3]: 0.6%
